Reference: US9101567B2, “Suppression of cancer growth and metastasis using nordihydroguaiaretic acid derivatives with 7-hydroxystaurosporine” (The Johns Hopkins University, priority 2010, dated 2015)

Assays:
Format in all cases: cell-based, human
[1] = tested on: LC3B-II; test: Western blotting of LC3B-II (autophagy) in MCF-7 cells; details: MCF-7, 15 hrs; M4N 80 μM
Procedure: The sample volumes were adjusted by the total protein amount. Protein assay was performed by Bio-Rad Protein Assay (Bio-Rad Laboratories, Inc. Hercules, Calif.). The samples were resolved by the standard SDS-polyacrylamide gel electrophoresis and transferred to nitrocellulose membrane (Amersham Biosciences, Bjorkgatan, Sweden). The membranes were blocked with skim milk, and incubated with primary antibodies at 4° C. overnight and then with secondary antibody conjugated with horse radish peroxidase at room temperature for 2 hrs. The signals were detected by western blot chemiluminescence reagent plus (New England Nuclear Life Science Products, Boston, Mass.). The effect of […] on autophagy was examined using the western blotting for LC3B-II in the presence of Baflomycin A1 in MCF-7 and HepG2 cells (FIG. 4D).

[2] = tested on: mitochondrial membrane potential (ΔΨm); test: Measurement of mitochondrial membrane potential with JC-1 dye in LNCaP cells
Procedure: The cells were cultured in 6 well microwell dishes and treated with the culture medium containing JC-1 dye (Cayman Chemical, Ann Arbor, Mich.) for 30 min, according to the company's protocol. After the cells had been washed carefully, they were treated with M4N for 5 hrs. The cells were observed through B29/Zeiss LSM 510 μMETA laser confocal microscope (Carl Zeiss, Germany). The cell images were captured by two different excitation lights (with 488 nm argon-ion and 568 nm argon-krypton lasers). Both JC-1 monomer and J-aggregates are detected by 488 nm excitation light while only J-aggregates are detected by 568 nm excitation light. The ratio of the intensity of the emission light excited by 568 nm light to that of the emission light excited by 488 nm light at every pixel of images (The ratio should indicate the mitochondrial potential) was calculated by the imaging software (Carl Zeiss, Germany). In the figure the ratio was shown by pseudo color. Red color indicates high ratio (high potential) while dark blue indicates low ratio (low potential). Yellow through green to light blue represents medium ratio (medium potential).
Since BNIP3 functions to activate mitochondria-related cell death machinery and induce mitochondrial membrane depolarization, the effect of M4N on the mitochondrial membrane potential (ΔΨm) was examined (FIG. 3C). […]

[3] = tested on: BNIP3 mRNA; test: Northern blotting of BNIP3 mRNA in LNCaP cells; details: 6 hr exposure to hypoxic condition, M4N 80 μM
Procedure: RNA was extracted from the cells by a Trizol Reagent (Invitrogen, Carlsbad, Calif.). Twentyfive μg of RNA per lane was dissolved on the 1.5% agarose gel containing 20 mM NaPO4 (pH 6.8) and 6% formaldehyde. RNA was transferred to a Nytran SPC membrane (Sigma-Aldrich, St. Louis, Mo.). The probe for BNIP3 was derived from a 199 bp fragment DNA generated by RT-PCR using a SuperScript III First-Strand Synthesis System for RT-PCR (Invitrogen, Carlsbad, Calif.), 5′-primer ‘[…]’ and 3′-primer ‘[…]’. The PCR fragment was cloned into a topo vector (Invitrogen, Carlsbad, Calif.). After midi-prep, the DNA fragment was excised from the vector and dissolved on the 2% agarose gel and purified. The extracted DNA fragment was labeled by ^32P-αdATP, Klenow fragment, and random hexagonal primers. After unincorporated ^32P-αdATP was removed by a Sephadex G-50 spun column, the labeled DNA fragment was used as a probe. After hybridization, the membrane was washed and autoradiographed to a BioMax MR film (Kodak, Rochester, N.Y.).
BNIP3 is a member of Bcl-2 family proteins which sends pro-apoptotic signal to mitochondria and induces mitochondrial membrane potential depolarization. […] This implies that BNIP3 is involved in autophagy as well as cell death. […]

[4] = tested on: Beclin-1; test: Western blotting of Beclin-1 in LNCaP cells; details: normoxic or hypoxic, 6 or 18 hr, M4N 80 μM
Procedure: The sample volumes were adjusted by the total protein amount. Protein assay was performed by Bio-Rad Protein Assay (Bio-Rad Laboratories, Inc. Hercules, Calif.). The samples were resolved by the standard SDS-polyacrylamide gel electrophoresis and transferred to nitrocellulose membrane (Amersham Biosciences, Bjorkgatan, Sweden). The membranes were blocked with skim milk, and incubated with primary antibodies at 4° C. overnight and then with secondary antibody conjugated with horse radish peroxidase at room temperature for 2 hrs. The signals were detected by western blot chemiluminescence reagent plus (New England Nuclear Life Science Products, Boston, Mass.). BNIP3 is a member of Bcl-2 family proteins which sends pro-apoptotic signal to mitochondria and induces mitochondrial membrane potential depolarization. […] This implies that BNIP3 is involved in autophagy as well as cell death. […] Since BNIP3 is known to be activated more under hypoxic conditions (24), BNIP3 expression was examined in both normoxic and hypoxic conditions (FIGS. 3A&B). […] Previously it was shown that BNIP3 expression is augmented by hypoxia through both […] (HIF)1α-dependent and nondependent pathways (24).

[5] = tested on: caspase-7; test: Western blotting of caspase-7 cleavage in MCF-7 cells; details: MCF-7, 17 hrs; M4N 80 μM, etoposide 20 μM, rapamycin 20 μM, UCN-01 5 μM
Procedure: (§1) The sample volumes were adjusted by the total protein amount. Protein assay was performed by Bio-Rad Protein Assay (Bio-Rad Laboratories, Inc. Hercules, Calif.). The samples were resolved by the standard SDS-polyacrylamide gel electrophoresis and transferred to nitrocellulose membrane (Amersham Biosciences, Bjorkgatan, Sweden). The membranes were blocked with skim milk, and incubated with primary antibodies at 4° C. overnight and then with secondary antibody conjugated with horse radish peroxidase at room temperature for 2 hrs. The signals were detected by western blot chemiluminescence reagent plus (New England Nuclear Life Science Products, Boston, Mass.).
(§2) The effect of the combination treatments on cell death and autophagy was examined in two cell lines other than LNCaP cells.

[6] = tested on: caspase-7; test: Western blotting of caspase-7 cleavage in HepG2 cells; details: HepG2, 17 hrs; M4N 80 μM, etoposide 20 μM, rapamycin 20 μM, UCN-01 5 μM
Procedure: as §1, §2

Row | SMILES | autophagy (LC3B-II in the presence of Baflomycin A1) [1] | mitochondrial membrane potential (ΔΨm) ([2]; 5 hrs, M4N 80 μM, JC-1 dye) | depolarization of mitochondrial membrane potential induced by rottlerin or Ly294002 ([2]; concomitant treatment with M4N) | BNIP3 mRNA expression [3] | Beclin-1 expression [4] | caspase-7 cleavage [5] | caspase-7 cleavage product [6]
1 | COc1ccc(C[C@@H](C)[C@@H](C)Cc2ccc(OC)c(OC)c2)cc1OC [M4N, Tetra-O-methyl nordihyroguaiaretic acid] | blocks autophagy | hyperpolarized | reversed to the normal potential to some extent | suppressed the increase of BNIP3 mRNA expression | not affected | – | –
2 | CN[C@@H]1C[C@H]2O[C@@](C)([C@@H]1OC)n1c3ccccc3c3c4c(c5c6ccccc6n2c5c31)C(=O)N[C@H]4O [UCN-01, 7-hydroxystaurosporine] | – | – | – | – | – | detected | great deal
